Patent publication US9675614B2, “PRMT5 inhibitors and uses thereof” (Epizyme, Inc., priority 2012, dated 2017)
Like-named read-outs stand apart in the source and are kept apart here.

Key:
PRMT5/MEP50 = PRMT5/MEP50 (Homo sapiens (Human), UniProt O14744); test: PRMT5 Biochemical Assay (PRMT5/MEP50 enzyme assay on peptide substrate, 3H-SAM Flashplate)
[1] = test system: symmetric di-methyl arginine in Z-138 cells; test: Z-138 Methylation Assay (In Cell Western for symmetric di-methyl arginine and DNA content); assay type: cell-based; conditions: read-out: ICW EC50
Description: [formula] Where top and bottom are the normally allowed to float, but may be fixed at 100 or 0 respectively in a 3-parameter fit. The Hill Coefficient normally allowed to float but may also be fixed at 1 in a 3-parameter fit. Y is the % inhibition and X is the compound concentration.
RPMI/Glutamax medium, penicillin-streptomycin, heat inactivated fetal bovine serum, and D-PBS were purchased from Life Technologies, Grand Island, N.Y., USA. Odyssey blocking buffer, 800CW goat anti-rabbit IgG (H+L) antibody, and Licor Odyssey infrared scanner were purchased from Licor Biosciences, Lincoln, Nebr., USA. Symmetric di-methyl arginine antibody was purchased from EMD Millipore, Billerica, Mass., USA. 16% Paraformaldehyde was purchased from Electron Microscopy Sciences, Hatfield, Pa., USA.
Cell Treatment, in Cell Western (ICW) for Detection of Symmetric Di-Methyl Arginine and DNA Content.
Z-138 cells were seeded in assay medium at a concentration of 50,000 cells per mL to a 384-well cell culture plate with 50 μL per well. Compound (100 nL) from 384 well source plates was added directly to 384 well cell plate. Plates were incubated at 37° C., 5% CO2 for 96 hours. […] Plates were incubated at room temperature for 30 minutes then incubated at 37° C., 5% CO2 for 5 hours. After the incubation, 40 μL per well of 8% paraformaldehyde in PBS (16% paraformaldahyde was diluted to 8% in PBS) was added to each plate and incubated for 30 minutes. […] Next 30 μL per well of Odyssey blocking buffer were added to each plate and incubated 1 hour at room temperature. […]
First, the ratio for each well was determined by:
Each plate included fourteen control wells of DMSO only treatment (minimum inhibition) as well as fourteen control wells for maximum inhibition treated with 3 μM of a reference compound (Background wells). The average of the ratio values for each control type was calculated and used to determine the percent inhibition for each test well in the plate. […] Percent inhibition was determined and IC50 curves were generated using triplicate wells per concentration of compound.

Z-138 cell line = test: Z-138 Proliferation Assay (Cell Titer Glo, 5 days); assay type: cell-based; conditions: Z-138 cells
Description: RPMI/Glutamax medium, penicillin-streptomycin, heat inactivated fetal bovine serum were purchased from Life Technologies, Grand Island, N.Y., USA. V-bottom polypropylene 384-well plates were purchased from Greiner Bio-One, Monroe, N.C., USA. Cell culture 384-well white opaque plates were purchased from Perkin Elmer, Waltham, Mass., USA. Cell-Titer Glo® was purchased from Promega Corporation, Madison, Wis., USA. SpectraMax M5 plate reader was purchased from Molecular Devices LLC, Sunnyvale, Calif., USA.
A compound source plate was prepared by performing triplicate nine-point 3-fold serial dilutions in DMSO, beginning at 10 mM (final top concentration of compound in the assay was 20 μM and the DMSO was 0.2%). A 100 nL aliquot from the compound stock plate was added to its respective well in the cell plate. […] After addition of compounds, assay plates were incubated for 5 days at 37° C., 5% CO2, relative humidity >90%. […] Luminescence was read in the SpectraMax M5 microplate reader. The concentration of compound inhibiting cell viability by 50% was determined using a 4-parametric fit of the normalized dose response curves.

[2] = PRMT5/MEP50 biochemical assay, read-out: Biochemical IC50

Chain of PRMT5/MEP50 (O14744 other isoform, or with tags, fused parts or gaps): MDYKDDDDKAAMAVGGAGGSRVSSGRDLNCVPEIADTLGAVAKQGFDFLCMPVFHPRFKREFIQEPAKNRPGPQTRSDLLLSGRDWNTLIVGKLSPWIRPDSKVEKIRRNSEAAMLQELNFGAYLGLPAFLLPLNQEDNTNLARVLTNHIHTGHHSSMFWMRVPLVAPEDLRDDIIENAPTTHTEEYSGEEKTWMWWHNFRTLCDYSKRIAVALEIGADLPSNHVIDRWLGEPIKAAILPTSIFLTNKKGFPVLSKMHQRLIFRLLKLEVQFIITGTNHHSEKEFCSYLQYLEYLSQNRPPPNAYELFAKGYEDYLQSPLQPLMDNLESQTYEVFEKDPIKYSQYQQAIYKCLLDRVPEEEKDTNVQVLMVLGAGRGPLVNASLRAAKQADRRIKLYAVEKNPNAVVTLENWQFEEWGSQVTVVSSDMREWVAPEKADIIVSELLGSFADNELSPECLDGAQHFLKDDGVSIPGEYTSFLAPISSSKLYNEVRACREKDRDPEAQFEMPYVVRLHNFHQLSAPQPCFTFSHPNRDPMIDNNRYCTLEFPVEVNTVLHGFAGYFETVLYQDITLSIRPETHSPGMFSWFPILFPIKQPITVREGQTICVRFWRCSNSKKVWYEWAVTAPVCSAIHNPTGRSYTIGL
Chain of PRMT5/MEP50 (Q9BQA1 other isoform, or with tags, fused parts or gaps partner): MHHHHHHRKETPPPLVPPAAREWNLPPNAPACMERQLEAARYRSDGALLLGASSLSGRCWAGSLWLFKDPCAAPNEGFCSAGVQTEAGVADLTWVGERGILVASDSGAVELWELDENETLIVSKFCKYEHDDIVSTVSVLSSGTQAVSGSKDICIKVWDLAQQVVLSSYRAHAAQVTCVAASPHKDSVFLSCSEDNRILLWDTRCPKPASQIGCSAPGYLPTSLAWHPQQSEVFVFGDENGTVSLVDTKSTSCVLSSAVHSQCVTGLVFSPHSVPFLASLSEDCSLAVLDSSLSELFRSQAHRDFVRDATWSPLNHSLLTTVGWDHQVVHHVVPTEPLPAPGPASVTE

Row | IC50 (PRMT5/MEP50; [2]) | SMILES | other results
1 | < 100 nM | CN1CCC(Oc2cc(C(=O)NC[C@H](O)CN3CCc4ccccc4C3)ncn2)CC1 [Compound 206] | EC50 ([1]; Homo sapiens): 101 to 1000 nM; EC50 (Z-138 cell line; Homo sapiens, Z-138, 120 h): 1000 to 10000 nM
2 | < 100 nM | O=C(NCC(O)CN1CCc2ccccc2C1)c1ccc(N2CCS(=O)(=O)CC2)cc1 (stereo not shown) [Compound 179] | 
3 | < 100 nM | CN1CCCC(CNc2cc(C(=O)NC[C@H](O)CN3CCc4ccccc4C3)ccn2)C1 (stereo partly shown) [Compound 264] | 
4 | 101 to 1000 nM | O=C(NC[C@H](O)CN1CCc2ccccc2C1)c1cc(OC2CCN(CC(F)(F)F)CC2)ncn1 [Compound 285] | 
5 | < 100 nM | O=C(NC[C@H](O)CN1CCc2ccccc2C1)c1ccc2ncsc2c1 [Compound 273] | 
6 | < 100 nM | CS(=O)(=O)N1CCC(Nc2cc(C(=O)NC[C@H](O)CN3CCc4ccccc4C3)ncn2)C1 (stereo partly shown) [Compound 257] | 
7 | < 100 nM | O=C(NC[C@H](O)CN1CCc2ccccc2C1)c1cc(NC2CN(CC(F)(F)F)C2)ncn1 [Compound 282] | 
8 | < 100 nM | O=C(NC[C@H](O)CN1CCc2ccccc2C1)c1ccnc(NCCNCC(F)(F)F)c1 [Compound 316] | 
9 | 101 to 1000 nM | O=C(NC[C@H](O)CN1CCc2ccccc2C1)c1cccc2ccccc12 [Compound 295] | 
10 | < 100 nM | CN1CCN(Cc2cccc(C(=O)NCC(O)CN3CCc4ccccc4C3)c2)CC1CO (stereo not shown) [Compound 253] | 
11 | < 100 nM | CS(=O)(=O)N1CCC(Oc2cccc(C(=O)NCC(O)CN3CCc4ccccc4C3)c2)C1 (stereo not shown) [Compound 162] | 
12 | < 100 nM | O=C(NC[C@H](O)CN1CCc2ccccc2C1)c1cccc(NC2CCN(CC(F)(F)F)CC2)c1 [Compound 217] | 
13 | < 100 nM | CC(=O)N1CCC(Nc2cncc(C(=O)NC[C@H](O)CN3CCc4ccccc4C3)c2)CC1 [Compound 302] | 
14 | < 100 nM | CN1CCN(Cc2ccc(C(=O)NCC(O)CN3CCc4ccccc4C3)cc2)CC1 (stereo not shown) [Compound 163] | 
15 | < 100 nM | CC(=O)N(C)CCN(C)c1cc(C(=O)NC[C@H](O)CN2CCc3ccccc3C2)ccn1 [Compound 291] | 
16 | < 100 nM | CS(=O)(=O)N1CCC(Oc2cncc(C(=O)NC[C@H](O)CN3CCc4ccccc4C3)c2)CC1 [Compound 290] | 
17 | < 100 nM | O=C(NC[C@H](O)CN1CCc2ccccc2C1)c1ccc(OC2CCN(Cc3ccccc3)CC2)cc1 [Compound 330] | 

Further lines, the compound ahead of its results:

Row | SMILES | IC50 (PRMT5/MEP50; [2]) | other results
18 | CN1CCC(Oc2cccc(C(=O)NCC(O)CN3CCc4ccccc4C3)c2)C1 (stereo not shown) [Compound 134] | < 100 nM | EC50 [1]: 101 to 1000 nM
19 | CN1CCC(Oc2cccc(C(=O)NCC(O)CN3CCc4ccccc4C3)c2)C1 (stereo not shown) [Compound 120] | < 100 nM | EC50 ([1]; Homo sapiens): 101 to 1000 nM; EC50 (Z-138 cell line): 1000 to 10000 nM
20 | O=C(NCC(O)CN1CCc2ccccc2C1)c1ccc(NC2CCOC2)cc1 (stereo not shown) [Compound 129] | < 100 nM | 
21 | NC(=O)CNCc1cccc(C(=O)NCC(O)CN2CCc3ccccc3C2)c1 (stereo not shown) [Compound 116] | 101 to 1000 nM | 
22 | O=C(NC[C@H](O)CN1CCc2ccccc2C1)Oc1ccccc1 [Compound 7] |  | IC50 (PRMT5/MEP50): 1000 to 10000 nM
23 | O=C(NCC(O)CN1CCc2ccccc2C1)c1cccc(NC2CCOCC2O)c1 (stereo not shown) [Compound 98] | < 100 nM | 
24 | Cc1ccc(NC2COC2)cc1C(=O)NCC(O)CN1CCc2ccccc2C1 (stereo not shown) [Compound 97] | < 100 nM | 
25 | O=C(NC[C@@H](O)CN1CCc2ccccc2C1)c1cccc(OC2CCOCC2)c1 [Compound 83] | 101 to 1000 nM | 
26 | O=C(NC[C@H](O)CN1CCc2ccccc2C1)Nc1ccccc1 [Compound 5] | 101 to 1000 nM | 
27 | CC(=O)N1CCN(Cc2cccc(C(=O)NCC(O)CN3CCc4ccccc4C3)c2)CC1 (stereo not shown) [Compound 100] | < 100 nM | 
28 | CN(c1ccc(C(=O)NCC(O)CN2CCc3ccccc3C2)cc1)C1CCOC1 (stereo not shown) [Compound 144] | < 100 nM | 
29 | O=C(NCC(O)CN1CCc2ccccc2C1)c1cccc(NC2CCN(CC(F)(F)F)C2)c1 (stereo not shown) [Compound 102] | < 100 nM | 
